In patent publication US10150728B2, “Alkylene derivatives” (Shionogi & Co., Ltd., priority 2013, dated 2018):

Target: recombinant human ACC2 (Homo sapiens (Human), UniProt O00763)
Test: Measurement of inhibitory activity on human ACC2 (MALDI-TOF MS, acetyl CoA to malonyl CoA conversion)
Format: biochemical
Details: Tables 155-159
How it was run: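 His-tagged human ACC2 (residues 27–2458) from baculovirus-infected Sf-9 cells was preincubated 1 h in pH 7.4 HEPES-KOH buffer with MgCl2, 6-10 mM potassium citrate, glutathione and BSA. Substrate solution held 1 mM ATP, 0.8 mM acetyl CoA and 25-50 mM bicarbonate. After 1–3 h at room temperature, malonyl CoA/(malonyl+acetyl CoA) was read by negative-mode MALDI-TOF MS; citrate, bicarbonate and time varied by enzyme lot.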

Chain of recombinant human ACC2 (O00763 27-2458): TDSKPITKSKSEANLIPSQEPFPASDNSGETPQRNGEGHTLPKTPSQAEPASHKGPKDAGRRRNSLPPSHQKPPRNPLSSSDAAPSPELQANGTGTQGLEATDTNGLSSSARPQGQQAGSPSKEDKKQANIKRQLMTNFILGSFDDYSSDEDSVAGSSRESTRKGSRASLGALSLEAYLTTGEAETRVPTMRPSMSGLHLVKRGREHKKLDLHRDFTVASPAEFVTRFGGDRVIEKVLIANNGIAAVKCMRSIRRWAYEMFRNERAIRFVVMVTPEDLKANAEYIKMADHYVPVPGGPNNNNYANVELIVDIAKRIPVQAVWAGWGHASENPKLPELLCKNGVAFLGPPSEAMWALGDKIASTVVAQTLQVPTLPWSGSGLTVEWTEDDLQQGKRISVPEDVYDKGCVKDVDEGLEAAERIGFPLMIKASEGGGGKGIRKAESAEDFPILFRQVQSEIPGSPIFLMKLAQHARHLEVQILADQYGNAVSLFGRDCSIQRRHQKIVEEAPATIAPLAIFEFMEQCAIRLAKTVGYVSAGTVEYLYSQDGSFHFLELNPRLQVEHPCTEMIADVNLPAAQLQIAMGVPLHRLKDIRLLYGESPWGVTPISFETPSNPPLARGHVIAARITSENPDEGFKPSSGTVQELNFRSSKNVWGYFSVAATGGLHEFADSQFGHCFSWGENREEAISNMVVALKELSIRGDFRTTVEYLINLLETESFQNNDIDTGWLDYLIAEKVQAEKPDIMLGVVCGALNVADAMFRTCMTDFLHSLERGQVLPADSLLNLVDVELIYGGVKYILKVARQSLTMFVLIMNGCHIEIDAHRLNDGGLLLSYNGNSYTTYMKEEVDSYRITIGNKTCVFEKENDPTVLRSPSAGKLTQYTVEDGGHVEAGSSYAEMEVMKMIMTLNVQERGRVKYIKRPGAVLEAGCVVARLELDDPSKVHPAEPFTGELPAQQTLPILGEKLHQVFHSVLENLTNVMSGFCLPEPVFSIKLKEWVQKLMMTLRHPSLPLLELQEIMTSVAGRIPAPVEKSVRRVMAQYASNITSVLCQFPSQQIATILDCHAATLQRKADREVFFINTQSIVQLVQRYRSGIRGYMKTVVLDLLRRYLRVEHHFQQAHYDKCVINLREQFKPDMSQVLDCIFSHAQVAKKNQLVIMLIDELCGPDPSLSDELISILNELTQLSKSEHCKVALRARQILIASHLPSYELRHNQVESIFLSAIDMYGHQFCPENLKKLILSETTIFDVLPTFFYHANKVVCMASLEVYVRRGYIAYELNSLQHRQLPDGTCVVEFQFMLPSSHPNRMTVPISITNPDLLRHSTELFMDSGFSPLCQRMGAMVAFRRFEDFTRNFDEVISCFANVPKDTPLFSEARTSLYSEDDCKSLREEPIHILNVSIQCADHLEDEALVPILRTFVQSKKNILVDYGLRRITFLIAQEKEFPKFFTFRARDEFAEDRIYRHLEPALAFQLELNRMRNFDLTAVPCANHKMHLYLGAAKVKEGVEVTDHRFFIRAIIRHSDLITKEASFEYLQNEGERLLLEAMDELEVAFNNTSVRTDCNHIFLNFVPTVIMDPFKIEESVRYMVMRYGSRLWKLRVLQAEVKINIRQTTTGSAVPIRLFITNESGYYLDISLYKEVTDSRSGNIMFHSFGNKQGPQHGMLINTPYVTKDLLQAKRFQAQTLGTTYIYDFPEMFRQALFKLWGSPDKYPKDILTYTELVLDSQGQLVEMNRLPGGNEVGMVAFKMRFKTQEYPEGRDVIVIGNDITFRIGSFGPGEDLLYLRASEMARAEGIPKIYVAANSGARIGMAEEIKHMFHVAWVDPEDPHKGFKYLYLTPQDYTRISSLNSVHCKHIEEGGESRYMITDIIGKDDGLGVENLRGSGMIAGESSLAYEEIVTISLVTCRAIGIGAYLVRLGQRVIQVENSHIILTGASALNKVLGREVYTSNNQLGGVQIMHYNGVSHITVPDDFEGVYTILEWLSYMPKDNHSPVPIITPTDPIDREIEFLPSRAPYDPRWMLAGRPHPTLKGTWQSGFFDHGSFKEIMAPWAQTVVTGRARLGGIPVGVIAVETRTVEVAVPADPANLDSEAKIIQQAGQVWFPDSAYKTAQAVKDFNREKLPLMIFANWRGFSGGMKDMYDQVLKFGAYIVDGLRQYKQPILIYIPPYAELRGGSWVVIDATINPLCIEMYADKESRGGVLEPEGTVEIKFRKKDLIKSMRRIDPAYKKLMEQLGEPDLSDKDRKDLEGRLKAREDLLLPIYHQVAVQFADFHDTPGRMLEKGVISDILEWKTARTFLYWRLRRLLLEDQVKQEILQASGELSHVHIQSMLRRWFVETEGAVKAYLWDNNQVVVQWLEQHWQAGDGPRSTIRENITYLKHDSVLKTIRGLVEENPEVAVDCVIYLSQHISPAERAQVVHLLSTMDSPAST

SMILES: CC(=O)N[C@@H](C)CO[C@H]1C[C@H](COc2ncnc(OCc3ccc(C(F)(F)F)cc3)c2Cl)C1 [Compound I-349]
- IC50: 39 nM

SMILES: CC(=O)N[C@@H](C)CO[C@H]1C[C@H](COc2ncnc(OCc3cccc(C(F)(F)F)c3)c2Cl)C1 [Compound I-350]
- IC50: 49 nM

SMILES: CC(=O)N[C@@H](C)CO[C@H]1C[C@H](COc2ncnc(OCc3ccc(C(F)(F)F)nc3)c2Cl)C1 [Compound I-351]
- IC50: 87 nM

SMILES: CC(=O)N[C@@H](C)CO[C@H]1C[C@H](COc2nccc3c2ccn3CC2CC2)C1 [Compound I-352]
- IC50: 22 nM

SMILES: CC(=O)N[C@@H](C)CO[C@H]1C[C@H](COc2ncnc(OCc3ncc(Cl)cn3)c2Cl)C1 [Compound I-353]
- IC50: 11 nM

SMILES: CC(=O)N[C@@H](C)CO[C@H]1C[C@H](COc2ncnc(OCc3ccc(F)cn3)c2Cl)C1 [Compound I-354]
- IC50: 11 nM

SMILES: CC(=O)N[C@@H](C)CO[C@H]1C[C@H](COc2ncnc(OCC3CC3)c2Cl)C1 [Compound I-355]
- IC50: 18 nM

SMILES: CC(=O)N[C@@H](C)CO[C@H]1C[C@H](COc2ncnc(OCC3CC3(F)F)c2Cl)C1 (stereo partly shown) [Compound I-356]
- IC50: 66 nM

SMILES: CC(=O)N[C@@H](C)CO[C@H]1C[C@H](COc2ncnc(OCC(C)(F)F)c2Cl)C1 [Compound I-357]
- IC50: 103 nM

SMILES: CC(=O)N[C@@H](C)CO[C@H]1C[C@H](COc2nccc(N3CCCC3)c2F)C1 [Compound I-358]
- IC50: 19 nM

SMILES: CC(=O)N[C@@H](C)CO[C@H]1C[C@H](COc2ncnc3c2ccn3CC2CC2)C1 [Compound I-359]
- IC50: 21 nM

SMILES: CC(=O)N[C@@H](C)CO[C@H]1C[C@H](COc2ncnc(OCc3cc(F)ccn3)c2Cl)C1 [Compound I-360]
- IC50: 17 nM

SMILES: CC(=O)N[C@@H](C)CO[C@H]1C[C@H](COc2ncnc(OCc3ccc(Cl)nn3)c2Cl)C1 [Compound I-361]
- IC50: 570 nM

SMILES: CC(=O)N[C@@H](C)CO[C@H]1C[C@H](COc2ncnc3c2ccn3C(C)C2CC2)C1 (stereo partly shown) [Compound I-362]
- IC50: 130 nM

SMILES: CC(=O)N[C@@H](C)CO[C@H]1C[C@H](COc2ncnc(OCc3cc(F)ccn3)c2F)C1 [Compound I-363]
- IC50: 32 nM

SMILES: CC(=O)N[C@@H](C)CO[C@H]1C[C@H](COc2nccc(N3CCC(F)(F)C3)c2Cl)C1 [Compound I-364]
- IC50: 44 nM

SMILES: CC(=O)N[C@@H](C)CO[C@H]1C[C@H](COc2nccc(OC3C[C@@H]4CC[C@@H]3C4)c2Cl)C1 (stereo partly shown) [Compound I-365]
- IC50: 100 nM

SMILES: CC(=O)N[C@@H](C)CO[C@H]1C[C@H](COc2nccc(OC3C[C@@H]4CC[C@@H]3C4)c2Cl)C1 (stereo partly shown) [Compound I-366]
- IC50: 31 nM

SMILES: CC(=O)N[C@@H](C)CO[C@H]1C[C@H](COc2nccc(OC3CCC3)c2Cl)C1 [Compound I-367]
- IC50: 113 nM

SMILES: CC(=O)N[C@@H](C)CO[C@H]1C[C@H](COc2nccc(OC3CCCCC3)c2Cl)C1 [Compound I-368]
- IC50: 48 nM

SMILES: CC(=O)N[C@@H](C)CO[C@H]1C[C@H](COc2nccc(OCC3CC3C)c2Cl)C1 (stereo partly shown) [Compound I-369]
- IC50: 19 nM

SMILES: CC(=O)N[C@@H](C)CO[C@H]1C[C@H](COc2nccc(OCC3(C)CC3)c2Cl)C1 [Compound I-370]
- IC50: 13 nM

SMILES: CC(=O)N[C@@H](C)CO[C@H]1C[C@H](COc2nccc(OCC3(C#N)CC3)c2Cl)C1 [Compound I-371]
- IC50: 198 nM

SMILES: CC(=O)N[C@@H](C)CO[C@H]1C[C@H](COc2nccc(OCC(C)(C)C)c2Cl)C1 [Compound I-372]
- IC50: 13 nM

SMILES: COCCOc1ccnc(OC[C@H]2C[C@H](OC[C@H](C)NC(C)=O)C2)c1Cl [Compound I-373]
- IC50: 894 nM

SMILES: CC(=O)N[C@@H](C)CO[C@H]1C[C@H](COc2nccc(OCC3COC3)c2Cl)C1 [Compound I-374]
- IC50: 637 nM

SMILES: CC(=O)N[C@@H](C)CO[C@H]1C[C@H](COc2nccc(N3CCC(F)(F)CC3)c2Cl)C1 [Compound I-375]
- IC50: 102 nM

SMILES: CC(=O)N[C@@H](C)CO[C@H]1C[C@H](COc2ncnc(OCc3ccccc3)c2Cl)C1 [Compound I-376]
- IC50: 7 nM

SMILES: CC(=O)N[C@@H](C)CO[C@H]1C[C@H](COc2ncnc(OCc3ccccn3)c2Cl)C1 [Compound I-377]
- IC50: 39 nM

SMILES: CC(=O)N[C@@H](C)CO[C@H]1C[C@H](COc2nccc(N3CCCC3)c2C)C1 [Compound I-378]
- IC50: 144 nM

SMILES: COc1c(-c2ccc(F)cc2)ccnc1OC[C@H]1C[C@H](OC[C@H](C)NC(C)=O)C1 [Compound I-379]
- IC50: 258 nM

SMILES: CC(=O)N[C@@H](C)CO[C@H]1C[C@H](COc2nccc(-c3ncc(C(F)(F)F)cn3)c2C)C1 [Compound I-380]
- IC50: 59 nM

SMILES: CC(=O)N[C@@H](C)CO[C@H]1C[C@H](COc2nccc3c2cnn3CC2CC2)C1 [Compound I-381]
- IC50: 155 nM

SMILES: CC(=O)N[C@@H](C)CO[C@H]1C[C@H](COc2nccc3c2OCCN3Cc2ccccc2)C1 [Compound I-382]
- IC50: 176 nM

SMILES: CC(=O)N[C@@H](C)CO[C@H]1C[C@H](COc2ncnc(OCc3ccccc3)c2F)C1 [Compound I-383]
- IC50: 8 nM

SMILES: CC(=O)N[C@@H](C)CO[C@H]1C[C@H](COc2ncnc(OCc3cccc(Cl)n3)c2Cl)C1 [Compound I-384]
- IC50: 364 nM

SMILES: CC(=O)N[C@@H](C)CO[C@H]1C[C@H](COc2ncnc(OCc3cc(Cl)ccn3)c2Cl)C1 [Compound I-385]
- IC50: 4 nM

SMILES: CC(=O)N[C@@H](C)CO[C@H]1C[C@H](COc2ncnc(OCc3ncccc3Cl)c2Cl)C1 [Compound I-386]
- IC50: 70 nM

SMILES: CC(=O)N[C@@H](C)CO[C@H]1C[C@H](COc2nccc3c2cnn3Cc2ccccc2)C1 [Compound I-387]
- IC50: 392 nM

SMILES: CC(=O)N[C@@H](C)CO[C@H]1C[C@H](COc2ncnc(OCc3ccccc3F)c2Cl)C1 [Compound I-388]
- IC50: 14 nM

SMILES: CC(=O)N[C@@H](C)CO[C@H]1C[C@H](COc2ncnc(OCc3cccc(F)c3)c2Cl)C1 [Compound I-389]
- IC50: 8 nM

SMILES: CC(=O)N[C@@H](C)CO[C@H]1C[C@H](COc2ncnc(OCc3ccc(F)cc3)c2Cl)C1 [Compound I-390]
- IC50: 7 nM

SMILES: CC(=O)N[C@@H](C)CO[C@H]1C[C@H](COc2ncnc(NCc3ccccc3)c2Cl)C1 [Compound I-391]
- IC50: 21 nM

SMILES: CC(=O)N[C@@H](C)CO[C@H]1C[C@H](COc2ncnc(OCc3cccnc3)c2Cl)C1 [Compound I-392]
- IC50: 69 nM

SMILES: CC(=O)N[C@@H](C)CO[C@H]1C[C@H](COc2ncnc(OCc3ccncc3)c2Cl)C1 [Compound I-393]
- IC50: 155 nM

SMILES: CC(=O)N[C@@H](C)CO[C@H]1C[C@](C)(COc2nccc(-c3ccc(F)cc3)c2Cl)C1 [Compound I-394]
- IC50: 18 nM

SMILES: CC(=O)N[C@@H](C)CO[C@H]1C[C@H](COc2nccc(OCc3ccccc3)c2Cl)C1 [Compound I-395]
- IC50: 7 nM

SMILES: CC(=O)N[C@@H](C)CO[C@H]1C[C@H](COc2ncnc(OCc3ccc(Cl)cn3)c2Cl)C1 [Compound I-396]
- IC50: 8 nM

SMILES: CC(=O)N[C@@H](C)CO[C@H]1C[C@H](COc2ncnc(Oc3noc4ccccc34)c2Cl)C1 [Compound I-397]
- IC50: 31 nM

SMILES: CC(=O)N[C@@H](C)CO[C@H]1C[C@H](COc2ncnc(-n3oc4ccccc4c3=O)c2Cl)C1 [Compound I-398]
- IC50: 115 nM

SMILES: CC(=O)N[C@@H](C)CO[C@H]1C[C@H](COc2ncnc(Oc3nsc4ccccc34)c2Cl)C1 [Compound I-399]
- IC50: 40 nM

SMILES: CC(=O)N[C@@H](C)CO[C@]1(C)C[C@@H](COc2nccc(-c3ccc(F)cc3)c2Cl)C1 [Compound I-400]
- IC50: 17 nM

SMILES: CC(=O)N[C@@H](C)CO[C@H]1C[C@H](COc2nccc(NCc3ccccc3)c2Cl)C1 [Compound I-401]
- IC50: 23 nM

SMILES: CC(=O)N[C@@H](C)CO[C@H]1C[C@H](COc2ncnc(N(C)Cc3ccccc3)c2Cl)C1 [Compound I-402]
- IC50: 83 nM

SMILES: CC(=O)N[C@@H](C)CO[C@H]1C[C@H](COc2ncnc(OCc3ccc(C)cn3)c2Cl)C1 [Compound I-403]
- IC50: 43 nM

SMILES: COc1cccc(COc2ncnc(OC[C@H]3C[C@H](OC[C@H](C)NC(C)=O)C3)c2Cl)n1 [Compound I-404]
- IC50: 676 nM

SMILES: CC(=O)N[C@@H](C)CO[C@H]1C[C@H](COc2ncnc(OCc3ncccc3F)c2Cl)C1 [Compound I-405]
- IC50: 62 nM

SMILES: CC(=O)N[C@@H](C)CO[C@H]1C[C@H](COc2ncnc(OCc3cnccn3)c2Cl)C1 [Compound I-406]
- IC50: 131 nM

SMILES: CCOc1ccc(COc2ncnc(OC[C@H]3C[C@H](OC[C@H](C)NC(C)=O)C3)c2Cl)cc1 [Compound I-407]
- IC50: 533 nM

SMILES: CCOc1cccc(COc2ncnc(OC[C@H]3C[C@H](OC[C@H](C)NC(C)=O)C3)c2Cl)c1 [Compound I-408]
- IC50: 465 nM

SMILES: CC(=O)N[C@@H](C)CO[C@H]1C[C@H](COc2ncnc(OCc3nccs3)c2Cl)C1 [Compound I-409]
- IC50: 74 nM

SMILES: CC(=O)N[C@@H](C)CO[C@H]1C[C@H](COc2ncnc(OCc3ncc(C)s3)c2Cl)C1 [Compound I-410]
- IC50: 15 nM

SMILES: CC(=O)N[C@@H](C)CO[C@H]1C[C@H](COc2ncnc(OCc3csc(Cl)n3)c2Cl)C1 [Compound I-411]
- IC50: 937 nM

SMILES: CC(=O)N[C@@H](C)CO[C@H]1C[C@H](COc2ncnc(OCc3cscn3)c2Cl)C1 [Compound I-412]
- IC50: 42 nM

SMILES: CC(=O)N[C@@H](C)CO[C@H]1C[C@H](COc2nccc(N(C)Cc3ccccc3)c2Cl)C1 [Compound I-413]
- IC50: 84 nM

SMILES: CC(=O)N[C@@H](C)CO[C@H]1C[C@H](COc2nccc(N3CCCC3C)c2Cl)C1 (stereo partly shown) [Compound I-414]
- IC50: 59 nM

SMILES: CC(=O)N[C@@H](C)CO[C@H]1C[C@H](COc2ncnc(OCc3ccccc3)c2C)C1 [Compound I-415]
- IC50: 18 nM

SMILES: CC(=O)N[C@@H](C)CO[C@H]1C[C@H](COc2ncnc(/C=C/c3ccccc3)c2C)C1 [Compound I-416]
- IC50: 90 nM

SMILES: CC(=O)N[C@@H](C)CO[C@H]1C[C@H](COc2ncnc(-c3ccc(F)cc3)c2C)C1 [Compound I-417]
- IC50: 451 nM

SMILES: CC(=O)N[C@@H](C)CO[C@H]1C[C@H](COc2ncnc(-c3ccc(C(F)(F)F)cc3)c2C)C1 [Compound I-418]
- IC50: 733 nM
